{
  "source": "ChEMBL document CHEMBL6074678",
  "about": "“Selectively Antagonizing the NOD1-Mediated Inflammatory Signaling Pathway Mitigates the Gastric Inflammation Induced by Helicobacter pylori Infection” (J Med Chem, 2024)",
  "key": {"[1]": {"assay": "Half life in C57BL/6 mouse at 2 mg/kg, iv by LC-MS/MS analysis", "assay_type": "ADME, organism-based", "conditions": "in vivo"}, "Mus musculus [2]": {"test_system": "Mus musculus", "assay": "Anti-inflammatory activity in C57BL/6 mouse model of Helicobacter pylori-induced gastric inflammation assessed as inhibition in gastric keratinocyte chemoattractant level pretreated orally with compound upto 24 hrs followed by infection of Helicobacter pylori measured upto 72 hrs", "assay_type": "functional, organism-based", "conditions": "dose 12.5-50 mg/kg, route po, time <= 96.0 hrs"}, "[3]": {"assay": "Cmax in C57BL/6 mouse at 2 mg/kg, iv by LC-MS/MS analysis", "assay_type": "ADME, organism-based", "conditions": "in vivo"}, "[4]": {"assay": "Volume of distribution at steady state in C57BL/6 mouse at 2 mg/kg, iv by LC-MS/MS analysis", "assay_type": "ADME, organism-based", "conditions": "in vivo, read-out: Vdss"}, "[5]": {"assay": "MRT (infinity) in C57BL/6 mouse at 20 mg/kg, po by LC-MS/MS analysis", "assay_type": "ADME, organism-based", "conditions": "in vivo"}, "[6]": {"assay": "Oral bioavailability in C57BL/6 mouse at 20 mg/kg by LC-MS/MS analysis", "assay_type": "ADME, organism-based", "conditions": "in vivo"}, "[7]": {"target": "T1, Nucleotide-binding oligomerization domain-containing protein 1 (Mus musculus) (UniProt Q8BHB0)", "T1 sequence (whole entry)": "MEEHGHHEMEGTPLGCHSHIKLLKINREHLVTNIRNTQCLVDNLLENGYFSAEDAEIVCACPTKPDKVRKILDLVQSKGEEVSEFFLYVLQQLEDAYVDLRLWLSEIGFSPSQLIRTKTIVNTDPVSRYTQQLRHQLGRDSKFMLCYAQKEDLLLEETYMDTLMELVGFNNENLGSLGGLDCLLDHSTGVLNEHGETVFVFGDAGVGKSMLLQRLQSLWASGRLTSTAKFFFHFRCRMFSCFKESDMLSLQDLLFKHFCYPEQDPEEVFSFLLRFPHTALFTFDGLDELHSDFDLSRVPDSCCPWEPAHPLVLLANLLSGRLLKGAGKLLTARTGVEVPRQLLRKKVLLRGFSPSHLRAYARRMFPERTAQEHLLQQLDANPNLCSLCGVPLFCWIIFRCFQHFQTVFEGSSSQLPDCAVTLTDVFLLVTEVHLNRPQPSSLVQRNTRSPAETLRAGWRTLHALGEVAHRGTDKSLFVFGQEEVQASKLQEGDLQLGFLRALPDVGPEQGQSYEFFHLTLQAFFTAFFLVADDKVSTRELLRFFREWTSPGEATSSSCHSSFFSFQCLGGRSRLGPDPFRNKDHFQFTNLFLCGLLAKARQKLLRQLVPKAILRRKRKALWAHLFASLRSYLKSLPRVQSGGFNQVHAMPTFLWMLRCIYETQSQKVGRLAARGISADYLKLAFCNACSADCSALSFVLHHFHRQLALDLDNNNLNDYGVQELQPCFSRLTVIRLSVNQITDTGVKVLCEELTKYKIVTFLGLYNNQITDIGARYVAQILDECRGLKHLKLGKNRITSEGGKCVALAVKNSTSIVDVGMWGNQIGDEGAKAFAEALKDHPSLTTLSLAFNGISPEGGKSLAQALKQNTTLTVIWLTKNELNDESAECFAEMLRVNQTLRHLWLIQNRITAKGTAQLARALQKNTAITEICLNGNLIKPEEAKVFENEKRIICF", "assay": "Antagonist activity at NOD1 in mouse BMDM cells assessed as decrease in phosphorylated p65 level at 0.1 to 1 uM incubated for 1 hr followed by C12-iE-DAP stimulation for 30 mins by Western blot analysis", "assay_type": "cell-based", "conditions": "filed as antagonist, dose 0.1-1 µM, time 1.5 hrs"}, "THP-1 [8]": {"test_system": "THP-1", "assay": "Anti-inflammatory activity in human THP-1 cells assessed as decrease in IL-6 mRNA level at 5 uM pretreated for 1 hr followed by infection with Helicobacter pylori for 2 hrs by RT-qPCR analysis relative to control", "assay_type": "functional", "design": "scale not given: the % may be the effect or the level left", "conditions": "time 3 hrs"}, "AGS": {"test_system": "AGS", "assay": "Anti-inflammatory activity in human AGS cells assessed as decrease in CXCL8 mRNA level at 1 uM pretreated for 1 hr followed by C12-iE-DAP stimulation for 2 hrs by RT-qPCR analysis", "assay_type": "functional, cell-based", "conditions": "time 3.0 hrs"}, "[9]": {"target": "T2, Nucleotide-binding oligomerization domain-containing protein 1 (Homo sapiens) (UniProt Q9Y239)", "T2 sequence (whole entry)": "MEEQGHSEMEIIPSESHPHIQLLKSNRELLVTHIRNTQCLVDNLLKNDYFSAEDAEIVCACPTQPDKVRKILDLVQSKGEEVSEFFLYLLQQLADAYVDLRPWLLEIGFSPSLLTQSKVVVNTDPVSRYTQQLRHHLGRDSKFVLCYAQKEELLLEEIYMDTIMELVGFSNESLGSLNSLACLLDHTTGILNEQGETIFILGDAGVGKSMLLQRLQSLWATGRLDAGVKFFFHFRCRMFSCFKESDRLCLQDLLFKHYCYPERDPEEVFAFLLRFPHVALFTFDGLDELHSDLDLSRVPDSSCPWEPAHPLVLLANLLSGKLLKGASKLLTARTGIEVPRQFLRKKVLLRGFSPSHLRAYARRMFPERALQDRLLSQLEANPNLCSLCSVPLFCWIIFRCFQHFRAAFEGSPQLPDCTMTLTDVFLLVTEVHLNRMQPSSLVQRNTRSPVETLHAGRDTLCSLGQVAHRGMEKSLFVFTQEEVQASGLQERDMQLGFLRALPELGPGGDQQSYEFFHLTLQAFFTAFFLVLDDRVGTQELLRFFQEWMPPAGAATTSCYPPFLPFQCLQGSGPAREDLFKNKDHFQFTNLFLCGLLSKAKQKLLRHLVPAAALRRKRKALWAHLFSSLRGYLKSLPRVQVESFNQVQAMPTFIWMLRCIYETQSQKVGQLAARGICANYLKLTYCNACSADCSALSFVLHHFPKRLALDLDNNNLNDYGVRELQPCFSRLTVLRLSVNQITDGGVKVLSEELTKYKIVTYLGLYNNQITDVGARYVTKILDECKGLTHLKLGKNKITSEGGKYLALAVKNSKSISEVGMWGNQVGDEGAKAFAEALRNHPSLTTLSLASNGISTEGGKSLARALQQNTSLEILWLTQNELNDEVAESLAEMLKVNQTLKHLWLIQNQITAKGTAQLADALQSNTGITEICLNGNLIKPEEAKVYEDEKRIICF", "assay": "Antagonist activity at NOD1 in human THP-1 cells assessed as decrease in phosphorylated RIP2 level at 0.1 to 1 uM incubated for 1 hr followed by C12-iE-DAP stimulation for 30 mins by Western blot analysis", "assay_type": "cell-based", "conditions": "filed as antagonist, dose 0.1-1 µM, time 1.5 hrs"}, "[10]": {"target": "T2, Nucleotide-binding oligomerization domain-containing protein 1 (Homo sapiens)", "assay": "Antagonist activity at NOD1 in human THP-1 cells assessed as decrease in phosphorylated p38 level at 0.1 to 1 uM incubated for 1 hr followed by C12-iE-DAP stimulation for 30 mins by Western blot analysis", "assay_type": "cell-based", "conditions": "filed as antagonist, dose 0.1-1 µM, time 1.5 hrs"}, "Mus musculus [11]": {"test_system": "Mus musculus", "assay": "Anti-inflammatory activity in C57BL/6 mouse assessed as inhibition of serum keratinocyte chemoattractant level pretreated orally with compound for 15 mins followed by C12-iE-DAP administration measured after 2 hrs by ELISA", "assay_type": "functional, organism-based", "conditions": "dose 12.5-50 mg/kg, route po, time 135.0 min"}, "THP-1 [12]": {"test_system": "THP-1", "assay": "Anti-inflammatory activity in human THP-1 cells assessed as decrease in CXCL8 mRNA level at 5 uM pretreated for 1 hr followed by infection with Helicobacter pylori for 2 hrs by RT-qPCR analysis", "assay_type": "functional, cell-based", "conditions": "time 3.0 hrs"}},
  "note": "Calls of active or inactive are those of the source. The calls are words filed in the database; no cut-off is given here.",
  "data": [
    {"smiles": "CS(=O)(=O)c1ccc2nc(Cl)n(-c3ccc(Cl)c(NS(=O)(=O)c4c(F)cccc4F)c3)c(=O)c2c1", "values": [
      {"measurement": "t1/2", "setting": "[1]", "value": 3.9, "unit": "min"},
      {"measurement": "inhibition", "setting": "Mus musculus [2]", "value": "Dose-dependent-effect; Exhibited Superior Efficacy Compared To Compound C"},
      {"measurement": "Cmax", "setting": "[3]", "value": 234, "unit": "ng/mL"},
      {"measurement": "Vd", "setting": "[4]", "value": 1.33, "unit": "L/kg"},
      {"measurement": "MRT inf", "setting": "[5]", "value": 3.22, "unit": "h"},
      {"measurement": "bioavailability", "setting": "[6]", "value": 4.77, "unit": "%"},
      {"measurement": "inhibition", "setting": "[7]", "value": "Active"},
      {"measurement": "Activity", "setting": "THP-1 [8]", "value": 100, "unit": "%"},
      {"measurement": "Activity", "setting": "AGS", "value": "Active"},
      {"measurement": "inhibition", "setting": "[9]", "value": "Active"},
      {"measurement": "inhibition", "setting": "[10]", "value": "Active"},
      {"measurement": "inhibition", "setting": "Mus musculus [11]", "value": "Dose-dependent-effect"},
      {"measurement": "Activity", "setting": "THP-1 [12]", "value": "Active"}
    ]}
  ]
}
